Publication PMC12486385 (Virus Evolution, 2025)
No end group written: not given here.

Assays:
[1] = system: NTRs (IMP⍺1/2/3/5/7 and IMPβ1/2/3); experiment: Fluorescence polarization; assay type: binding, human; mouse (IMP⍺2); conditions: FP; poor peptide solubility
[2] = Peptide precipitation / solubility under assay conditions; assay type: physicochemical
[3] = biological target: human importin beta 1 (hIMPβ1) (human, UniProt Q14974 1-876); experiment: fluorescence polarisation
human importin beta 1 (hIMPβ1), sequence (Q14974 whole entry): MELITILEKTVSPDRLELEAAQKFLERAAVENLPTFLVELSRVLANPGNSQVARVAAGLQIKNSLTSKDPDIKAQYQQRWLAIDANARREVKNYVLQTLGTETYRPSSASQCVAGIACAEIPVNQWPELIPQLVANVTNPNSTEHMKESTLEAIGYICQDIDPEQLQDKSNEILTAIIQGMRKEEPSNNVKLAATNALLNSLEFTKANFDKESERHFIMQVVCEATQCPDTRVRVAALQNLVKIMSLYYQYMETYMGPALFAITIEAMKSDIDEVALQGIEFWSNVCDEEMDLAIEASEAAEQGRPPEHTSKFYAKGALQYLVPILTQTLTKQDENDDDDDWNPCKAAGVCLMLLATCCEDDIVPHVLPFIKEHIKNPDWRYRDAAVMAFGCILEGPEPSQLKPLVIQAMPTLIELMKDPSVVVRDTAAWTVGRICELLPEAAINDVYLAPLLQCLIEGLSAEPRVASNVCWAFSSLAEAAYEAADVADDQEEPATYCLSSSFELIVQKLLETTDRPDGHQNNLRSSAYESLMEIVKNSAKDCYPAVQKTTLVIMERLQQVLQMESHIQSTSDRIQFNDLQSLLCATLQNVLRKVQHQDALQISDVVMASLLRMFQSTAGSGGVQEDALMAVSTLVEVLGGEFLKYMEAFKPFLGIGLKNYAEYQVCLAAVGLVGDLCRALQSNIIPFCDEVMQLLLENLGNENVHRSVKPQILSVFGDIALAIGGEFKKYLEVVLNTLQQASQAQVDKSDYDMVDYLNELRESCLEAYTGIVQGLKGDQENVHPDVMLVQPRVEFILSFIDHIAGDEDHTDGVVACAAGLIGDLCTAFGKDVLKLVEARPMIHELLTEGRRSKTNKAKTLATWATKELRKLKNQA

Molecule | interaction with NTRs (in words) [1] | precipitation ([2]; EMSA conditions, 10 μM FITC-peptide, TB buffer) | solubility (in words) ([2]; FP conditions, 10 nM FITC-peptide, SEC buffer pH 8) | binding result [3]
27-RRWRRRPRRRRRPYRRRPYRRYGRRRKVRRR-57 [ORF1 NLSn] | no interaction could be detected | consistently precipitated, suggesting poor solubility under assay conditions | poor peptide solubility | 
YGRRRKVRRR (also: FITC-tagged, end not given here) [ORF1 NLSn_B peptide (TTDoV ORF1 residues 48-57, predicted monopartite cNLS)] |  |  |  | binds
